Data set [1] is described as follows: PK after i.v. and s.c. administration to domestic LYD pig. The following applies: female, domestic LYD pig, pig, in vivo, sc. As for the experimental part:
The purpose of this study was to investigate pharmacokinetic and pharmacodynamic properties after intravenous (i.v.) and subcutaneous (s.c.) administration to Gottingen Minipig and domestic LYD pig, and to estimate bioavailability after s.c. dosing. Quantitative plasma analysis of CNP and cGMP levels were performed as described in
Animals and dosing: The pharmacokinetic and pharmacodynamic studies in Gottingen Minipig or domestic LYD pig were conducted at CRO Minerva Imaging or Novo Nordisk A/S, respectively. CNP compounds were dosed to normal female 1) Gottingen minipigs 6-12 months of age with an average weight of 22 kg or 2) domestic LYD pigs 4-5 months of age with and average weight of 80 kg. At least one week prior to dosing, permanent central venous catheters were implanted for blood sampling and intravenous (i.v.) dosing. For subcutaneous (s.c.) dosing, the pigs were ultrasound scanned and the optimal injection area laterally on the neck marked by a permanent tattoo. An insulin pen (NovoPen Echo or NovoPen 4) and insulin needle (NovoFine 32G/4 mm or NovoTwist 32G/5 mm) were used for accurate deposition of the CNP formulations in the subcutaneous fat tissue with the needle perpendicular to the skin.
CNP compounds were formulated according to the principles in General Methods of Preparation—Method G and were either A) 8 mM sodium phosphate, 250 mM glycerol, pH 6.5, B) 5 mM sodium acetate, 250 mM glycerol, pH 4.0, C) 5 mM sodium acetate, 240 mM propylene glycol, pH=4.0, D) 8 mM sodium phosphate, 250 mM glycerol, pH 7.5 or E) 20 mM sodium phosphate, 223 mM propylene glycol, pH 6.0.
Intravenously, the CNP compounds were dosed at 30-60 nmol/kg to Minipig and 15-43 nmol/kg to domestic pig using formulations A-E. Subcutaneously, the CNP compounds were dosed at 55-62 nmol/kg to Minipig and 20-30 nmol/kg to domestic pig using formulations A-D.
Sampling: Blood samples of approximately 1 mL were collected pre dose and up to 14 days post dose into EDTA-coated tubes (8 mM) for cGMP and CNP compound analysis by LC-MS. In few instances, cGMP was only analysed up to 48 hours post dose after intravenous dosing in domestic LYD pig. The blood samples were kept on wet ice for maximum 30 minutes until centrifugation for 10 minutes at 4° C. and minimum 1500G, and the plasma samples were stored at −20° C. until analysis.
Plasma concentration-time profiles were analyzed by non-compartmental PK analysis using Phoenix WinNonlin 8.1, Pharsight Inc., Mountain View, CA, USA. Calculation of the area under the plasma concentration-time curve (AUC) was based on the “linear up log down” method, and uniform weighting was used for estimation of the terminal rate constant (λz). S.c. bioavailability (F) was calculated as the dose-normalized AUC (AUC/dose) after s.c. administration divided by the AUC/dose after i.v. administration. […]

Data set [2] can be described thus: Telemetry measurement of heart rate and blood pressure in awake rats. In kind it is in vivo, Sprague Dawley rat. The following applies: for Heart rate: 30 min, P (vs vehicle) / Heart rate: 12 h, P (vs vehicle) / Mean arterial pressure: 30 min, P (vs vehicle) / Mean arterial pressure: 12 h, P (vs vehicle): paired t test; for Heart rate: 12 h, Mean (bpm) / Mean arterial pressure: 12 h, Mean (mmHg) / Heart rate: 30 min, Mean (bpm) / Mean arterial pressure: 30 min, Mean (mmHg): awake rats; for Heart rate: 12 h, Mean (bpm) / Mean arterial pressure: 12 h, Mean (mmHg): average of first 12 h; for Heart rate: 30 min, Mean (bpm) / Mean arterial pressure: 30 min, Mean (mmHg): first 30 min; for increase in HR: P<0.05. As for the experimental part:
The purpose of the study was to investigate the effect of acute dosing with the CNP compound 9482 (Chem. 137) on mean blood pressure (MAP) and heart rate (HR) in awake rats.
Procedure: The transducers are implanted in Sprague Dawley rats (Charles River) and the rats are allowed a 2-3-week period for recovery. Before surgery, the devices are registered in the software by placing them on a receiver plate and powered on. Sterile saline is added to the transducer catheter before surgery start, and the transmitter is then powered on. The transmitters are placed in the abdomen with the sensor in aorta abdominalis. Isoflurane is used as anaesthetic, and during and after surgery, the rats receive Temgesic (0.05 mg/kg s.c.), Norodyl (5 mg/kg s.c.), and Baytril (10 mg/kg s.c.) as pain relief and to prevent bacterial infection.
Study design: Rats are housed 2/cage (1 with device and 1 as social partner). All animals will have free access to water and food (altromin) throughout the entire study. The rats will be housed in light cycles with light from 6 AM to 6 PM and dark from 6 PM to 6 AM. Eight rats are divided into 2 groups according to a crossover study design.
Telemetry: Each rat is equipped with a transducer (HD-S10 from DSI) capable of measuring blood pressure, heart rate, and activity using Ponemah software with a 100 Hz frequency. During measurements, there should be no disturbances in the room that the rats are housed in to minimize variability in the data. A 4-hour baseline recording will be taken prior to start of the study to capture mean arterial pressure (MAP) and heart rate (HR) patterns in untreated, undisturbed rats. The recording period after drug administration was 24 hours.
Dosing scheme: Rats are dosed in a crossover study design with 4 rats in each group. Each rat is given a washout period of 1 week prior to the next dosing event. Dosing will be intravenous (IV) in the tail vein. Dosing of 9482 was tested in 30, 100, and 300 nmol/kg i.v. in separate experiments. The vehicle consists of 8 mM phosphate, 250 mM glycerol, pH 7.4.
Data analysis and statistics was conducted in Ponemah software and Graphpad prism. For statistics, a paired t test was applied with a confidence level of 95% and P<0.05 denoting statistical significance.

The mark [3] stands for this setting: first 30 min after dosing, 30, 100, or 300 nmol/kg i.v.

Starred links: 1 amine or outer side, 2 acyl side, 3 side chain; linkers in the order of their positions; H or OH if unused. Positions of bridges follow the written chain, without caps; N, C: chain ends. Residues, ends and D or L forms follow the SMILES beside them. *: point of attachment. C18 diacid = O=C(O)CCCCCCCCCCCCCCCCC(=O)*; γGlu = O=C(O)[C@H](CCC(=O)[*:2])N[*:1]

In general, bioavailability refers to the share of a dose that reaches the circulation, judged against a reference dose that is usually intravenous. A higher bioavailability goes with good availability. Turning to `CC[C@H](C)[C@@H]1NC(=O)[C@H](CCCNC(=N)N)NC(=O)[C@H](CC(=O)O)NC(=O)[C@H](CC(C)C)NC(=O)[C@H](CCCCN)NC(=O)[C@H](CC(C)C)NC(=O)CNC(=O)[C@H](Cc2ccccc2)NC(=O)[C@@H](NC(=O)CNC(=O)[C@H](CCCCN)NC(=O)[C@H](CO)NC(=O)[C@H](CC(C)C)NC(=O)CNC(=O)[C@H](CCCCN)NC(=O)[C@H](CCCCN)NC(=O)[C@H](CCC(N)=O)NC(=O)[C@H](C)NC(=O)CNC(=O)[C@H](Cc2c[nH]cn2)NC(=O)[C@H](CCC(=O)O)NC(=O)COCCOCCNC(=O)COCCOCCNC(=O)CC[C@H](NC(=O)CCCCCCCCCCCCCCCCC(=O)O)C(=O)O)CSSC[C@@H](C(=O)O)NC(=O)CNC(=O)[C@H](CC(C)C)NC(=O)CNC(=O)[C@H](CO)NC(=O)[C@H](CC(C)C)NC(=O)[C@H](CO)NC(=O)CNC1=O` [compound 1235], the bioavailability in data set [1] stood at 25%.
In the case of `CC[C@H](C)[C@@H]1NC(=O)[C@H](CCCNC(=N)N)NC(=O)[C@H](CC(=O)O)NC(=O)[C@H](CC(C)C)NC(=O)[C@@H]2CCCN2C(=O)[C@H](CC(C)C)NC(=O)CNC(=O)[C@H](Cc2ccccc2)NC(=O)[C@@H](NC(=O)CNC(=O)[C@H](CO)NC(=O)[C@H](CO)NC(=O)[C@H](CC(C)C)NC(=O)CNC(=O)[C@H](CCCCN)NC(=O)[C@H](CCCCN)NC(=O)[C@H](CCC(N)=O)NC(=O)[C@H](C)NC(=O)CNC(=O)[C@H](CCCCN)NC(=O)[C@H](Cc2ccc(O)cc2)NC(=O)[C@H](CCCCN)NC(=O)[C@H](CCCNC(=N)N)NC(=O)[C@H](C)NC(=O)[C@H](CCC(N)=O)NC(=O)[C@@H]2CCCN2C(=O)[C@H](Cc2c[nH]cn2)NC(=O)[C@H](CCC(=O)O)NC(=O)[C@H](CCC(N)=O)NC(=O)CC[C@H](NC(=O)CC[C@H](NC(=O)CC[C@H](NC(=O)CC[C@H](NC(=O)CC[C@H](NC(=O)CCCCCCCCCCCCCCCCC(=O)O)C(=O)O)C(=O)O)C(=O)O)C(=O)O)C(=O)O)CSSC[C@@H](C(=O)O)NC(=O)CNC(=O)[C@H](CC(C)C)NC(=O)CNC(=O)[C@H](CO)NC(=O)[C@H](CC(C)C)NC(=O)[C@H](CO)NC(=O)CNC1=O` [compound 9482] ({C18 diacid-γGlu-γGlu-γGlu-γGlu-γGlu}-QEHPQARKYKGAQKKGLSSGCFGLPLDRIGSLSGLGC-OH; disulfide 21-37), in data set [2] (30 nmol/kg i.v.), the “Heart rate: 30 min, P (vs vehicle)” value was “ns”; the “Heart rate: 12 h, P (vs vehicle)” value is listed as “ns”; the “Mean arterial pressure: 30 min, P (vs vehicle)” value is “ns”; the “Mean arterial pressure: 12 h, P (vs vehicle)” value is on record as “ns”. In addition, in data set [2] (30 nmol/kg i.v.), the “Heart rate: 12 h, Mean (bpm)” value came to 332 bpm; the “Mean arterial pressure: 12 h, Mean (mmHg)” value is 106 mmHg; the “Heart rate: 30 min, Mean (bpm)” value was 356 bpm; the “Mean arterial pressure: 30 min, Mean (mmHg)” value was 116 mmHg. In data set [2] (100 nmol/kg i.v.), the “Heart rate: 30 min, P (vs vehicle)” value is given as “ns”; the “Heart rate: 12 h, P (vs vehicle)” value is 0.04; the “Mean arterial pressure: 30 min, P (vs vehicle)” value is “ns”; the “Mean arterial pressure: 12 h, P (vs vehicle)” value is on record as “ns”. In data set [2] (100 nmol/kg i.v.), the “Heart rate: 12 h, Mean (bpm)” value worked out at 364 bpm; the “Mean arterial pressure: 12 h, Mean (mmHg)” value turned out to be 104 mmHg; the “Heart rate: 30 min, Mean (bpm)” value worked out at 388 bpm; the “Mean arterial pressure: 30 min, Mean (mmHg)” value turned out to be 114 mmHg. Further, in data set [2] (300 nmol/kg i.v.), the “Heart rate: 30 min, P (vs vehicle)” value is “ns”; the “Heart rate: 12 h, P (vs vehicle)” value is listed as 0.03; the “Mean arterial pressure: 30 min, P (vs vehicle)” value was “ns”; the “Mean arterial pressure: 12 h, P (vs vehicle)” value is “ns”. Also, in data set [2] (300 nmol/kg i.v.), the “Heart rate: 12 h, Mean (bpm)” value turned out to be 355 bpm; the “Mean arterial pressure: 12 h, Mean (mmHg)” value is 102 mmHg; the “Heart rate: 30 min, Mean (bpm)” value is given as 370 bpm; the “Mean arterial pressure: 30 min, Mean (mmHg)” value amounted to 111 mmHg. The “MAP compared to vehicle” value in data set [2] (average of the first 12 h, three tested doses i.v.) was “no differences”. In data set [2] (setting [3]), the “HR compared to vehicle” value is recorded as “no difference” and the “MAP compared to vehicle” value was “no difference”. For the same compound, the “change in HR” value in data set [2] (first 12 h, 30 nmol/kg i.v.) is given as “No change”. In addition, the “increase in HR” value in data set [2] (first 12 h, 100 nmol/kg i.v.) is recorded as 8.8±10.1%. In addition, in data set [2] (first 12 h, 300 nmol/kg i.v.), the “increase in HR” value is 6.4±6.6%.

The values above are taken from patent publication US20240209028A1, “CNP COMPOUNDS” (priority 2022, published 2024).
